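Protocol summary: plate cells (96-well), add compound at 5 concentrations, incubate 48 h, interpolate endpoints linearly. At the GI50, growth is halved.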 The source made the active and inactive calls. No stated cut-off is given here; in the data, active = GI50 up to about 1.1 µM and inactive = higher.
Columns and labels:
Test in all cases: NCI-60 cell line screen, 48 h
SNB-78 = tested on: SNB-78
M19-MEL = tested on: M19-MEL
HOP-18 = tested on: HOP-18
DLD-1 = tested on: DLD-1
KM-20L2 = tested on: KM-20L2
RXF 631 = tested on: RXF 631
LXFL 529 = tested on: LXFL 529
DMS-273 = tested on: DMS-273
XF498 = tested on: XF498

SMILES | GI50 (SNB-78) | GI50 (M19-MEL) | GI50 (HOP-18) | GI50 (DLD-1) | GI50 (KM-20L2) | GI50 (RXF 631) | GI50 (LXFL 529) | GI50 (DMS-273) | GI50 (XF498)
Nc1ccn([C@@H]2C[C@H](CO)[C@@H](O)[C@H]2O)c(=O)n1 | > 57.7 µM (inactive) | > 57.7 µM (inactive) | > 57.7 µM (inactive) | > 57.7 µM (inactive) | > 57.7 µM (inactive) | > 57.7 µM (inactive) | > 57.7 µM (inactive) | > 57.7 µM (inactive) | 
COc1ccc2c(c1)CCc1c-2nc2cc3c(cc2c1O)OCO3 | > 100 µM (inactive) | > 100 µM (inactive) | > 100 µM (inactive) | > 100 µM (inactive) | > 100 µM (inactive) |  | > 100 µM (inactive) | > 100 µM (inactive) | > 100 µM (inactive)
CN(C)CCC(=O)N1C/C(=C/c2ccccc2)C(=O)/C(=C\c2ccccc2)C1 | 3 µM (inactive) | 0.834 µM (active) | 4.46 µM (inactive) | 0.931 µM (active) | 0.998 µM (active) | 2.29 µM (inactive) | 1.92 µM (inactive) | 1.55 µM (inactive) | 2.5 µM (inactive)
O=c1c(-c2ccccc2)c(O)nc2[nH]c3ccccc3n12 | > 100 µM (inactive) | > 100 µM (inactive) | > 100 µM (inactive) | > 100 µM (inactive) | > 100 µM (inactive) | > 100 µM (inactive) | > 100 µM (inactive) | > 100 µM (inactive) | > 100 µM (inactive)
CNS(=O)(=O)NNS(=O)(=O)c1ccc(Br)cc1 | > 100 µM (inactive) | > 100 µM (inactive) | 2.64 µM (inactive) | > 100 µM (inactive) | > 100 µM (inactive) | > 100 µM (inactive) | > 100 µM (inactive) | > 100 µM (inactive) | > 100 µM (inactive)
COc1ccc(OC)c2[s+]snc12 | > 100 µM (inactive) | 15.8 µM (inactive) |  | 49.5 µM (inactive) | > 100 µM (inactive) | > 100 µM (inactive) | 35.6 µM (inactive) | > 100 µM (inactive) | 45.3 µM (inactive)
O=C(NC12CC3CC(CC(C3)C1)C2)C(=O)c1c[nH]c2ccc(Br)cc12 | 35.7 µM (inactive) |  | 19.1 µM (inactive) | 13.4 µM (inactive) | 4.54 µM (inactive) |  | 15.5 µM (inactive) | 4.54 µM (inactive) | 
COc1cc2c(c(OC)c1OC)-c1ccc(OC)c(=O)cc1C(NC(=O)c1ccc(N=[N+]=[N-])cc1)CC2 (stereo not given) | 0.03 µM (active) | 0.0581 µM (active) | > 84.9 µM (inactive) | 0.0413 µM (active) | 0.0188 µM (active) |  | 0.0372 µM (active) | 0.0244 µM (active) | 
COc1cc2c(cc1OC)C(C(=O)c1cccc(OC)c1OC)C(=O)N(C)CC2 (stereo not given) |  | > 100 µM (inactive) | > 100 µM (inactive) | > 100 µM (inactive) | > 100 µM (inactive) | > 100 µM (inactive) | > 100 µM (inactive) | > 100 µM (inactive) | 63.4 µM (inactive)
CC1CCSC(N(C(=O)N(C)c2ccccc2)c2ccccc2)=N1 (stereo not given) | > 100 µM (inactive) | > 100 µM (inactive) |  | > 100 µM (inactive) | > 100 µM (inactive) |  | > 100 µM (inactive) | > 100 µM (inactive) | > 100 µM (inactive)
O=C(NC12CC3CCC1CC(C3)C2)[C@@H]1CCCN1C(=O)OCc1ccccc1 (stereo not given in full) | 49.9 µM (inactive) | 83.6 µM (inactive) | > 100 µM (inactive) | 56.9 µM (inactive) | 46.9 µM (inactive) |  | 30.3 µM (inactive) | 49.8 µM (inactive) | 19.2 µM (inactive)
NC(=O)NC1C(C(=O)O)N(Cc2ccccc2)C(=O)N1Cc1ccccc1 (stereo not given) | > 100 µM (inactive) | > 100 µM (inactive) |  | > 100 µM (inactive) | > 100 µM (inactive) |  | > 100 µM (inactive) |  | > 100 µM (inactive)
CC[C@@]1(OC(=O)CN(C)C)C(=O)OCc2c1cc1n(c2=O)Cc2cc3ccccc3nc2-1 | 7.67 µM (inactive) | 0.114 µM (active) | 0.312 µM (active) | 0.323 µM (active) | 0.249 µM (active) |  | 1.29 µM (inactive) | 0.01 µM (active) | 0.354 µM (active)
COc1ccc(OCC(=O)O)c2c1CCCC2=O | > 100 µM (inactive) | > 100 µM (inactive) |  | > 100 µM (inactive) |  | > 100 µM (inactive) | > 100 µM (inactive) | > 100 µM (inactive) | 3.52 µM (inactive)
COC(=O)Cc1cc(O)c2c(c1O)C(=O)c1ccccc1C2=O | 37.6 µM (inactive) | > 100 µM (inactive) | > 100 µM (inactive) | > 100 µM (inactive) | > 100 µM (inactive) | 35.6 µM (inactive) | 71.4 µM (inactive) | > 100 µM (inactive) | 
COC(=O)C12C3C4C5C3(C#N)C1C5(C(=O)OC)C42C(=O)N(C(C)C)C(C)C (stereo not given) | > 100 µM (inactive) | > 100 µM (inactive) | > 100 µM (inactive) | > 50.2 µM (inactive) | > 100 µM (inactive) | > 95.5 µM (inactive) | > 92.9 µM (inactive) | > 42.5 µM (inactive) | > 63.7 µM (inactive)
CSc1nc(NC2OC(COC(C)=O)C(OC(C)=O)C(OC(C)=O)C2OC(C)=O)c(-c2csc(N)n2)c(=O)n1C (stereo not given) | 22.4 µM (inactive) | 47.6 µM (inactive) | 16.6 µM (inactive) | 44.8 µM (inactive) | > 100 µM (inactive) |  | 31.7 µM (inactive) |  | 
CC1=C(C(=O)Nc2cc(=O)n(C)c(=O)n2C)C(c2ccco2)C(C(=O)Nc2cc(=O)n(C)c(=O)n2C)=C(C)N1 | > 100 µM (inactive) | > 100 µM (inactive) |  | > 100 µM (inactive) | > 100 µM (inactive) | > 100 µM (inactive) | > 100 µM (inactive) |  | > 100 µM (inactive)
CN(C)C(=S)/N=c1\ss/c(=N\C(=S)N(C)C)n1-c1ccc(Cl)c(Cl)c1 | 67.1 µM (inactive) | > 100 µM (inactive) |  |  | > 100 µM (inactive) |  |  | > 100 µM (inactive) | 
COC(=O)C(=O)C(C#N)c1cccc2ccccc12 (stereo not given) | > 100 µM (inactive) | > 100 µM (inactive) | > 100 µM (inactive) | > 100 µM (inactive) | > 100 µM (inactive) |  | > 100 µM (inactive) | > 100 µM (inactive) | > 100 µM (inactive)
COc1cc2c(c(OC)c1)C1(CC(CC#N)C2)SCCS1 (stereo not given) | > 100 µM (inactive) | > 100 µM (inactive) | > 100 µM (inactive) | > 100 µM (inactive) | > 100 µM (inactive) | > 100 µM (inactive) | > 100 µM (inactive) | > 100 µM (inactive) | 
NCCCCN(CCCN)/[N+]([O-])=N\O | > 100 µM (inactive) | > 100 µM (inactive) | > 100 µM (inactive) | > 100 µM (inactive) | > 100 µM (inactive) |  | > 100 µM (inactive) | > 100 µM (inactive) | 
O=C(Nc1ccn(CCI)c(=O)n1)c1ccccc1 | > 100 µM (inactive) | > 100 µM (inactive) | > 100 µM (inactive) | > 100 µM (inactive) | > 100 µM (inactive) |  | > 100 µM (inactive) | > 100 µM (inactive) | 
CN(C)[C@@H]1C(O)=C(C(=O)NCNc2nc3[nH]nnc3c(=O)[nH]2)C(=O)[C@@]2(O)C(O)=C3C(=O)c4c(O)cccc4[C@@](C)(O)[C@H]3C[C@@H]12 | 1.81 µM (inactive) | 2.24 µM (inactive) | 2.19 µM (inactive) | 29.7 µM (inactive) | 16.2 µM (inactive) | 0.836 µM (active) | 53.1 µM (inactive) | 1.29 µM (inactive) | 1.26 µM (inactive)
CC(O)C(N/C=C1/N=C(c2ccccc2)OC1=O)C(=O)O (stereo not given) | > 100 µM (inactive) | > 100 µM (inactive) | > 100 µM (inactive) | > 100 µM (inactive) | > 100 µM (inactive) | > 100 µM (inactive) | > 100 µM (inactive) | > 100 µM (inactive) | > 100 µM (inactive)
O=C(c1ccccn1)c1nc(-c2ccc(Cl)c(Cl)c2)nc2ccc(Cl)cc12 | > 100 µM (inactive) | 81.1 µM (inactive) |  | 99.3 µM (inactive) | > 100 µM (inactive) |  | 46.6 µM (inactive) | 32 µM (inactive) | 20.8 µM (inactive)
COC(=O)/C=C/C1C2C3(CCC(C)C12C)OCCS3 (stereo not given) | > 100 µM (inactive) | > 100 µM (inactive) | > 100 µM (inactive) | > 100 µM (inactive) | > 100 µM (inactive) |  | > 100 µM (inactive) | > 100 µM (inactive) | > 100 µM (inactive)
CCN(CC)CCNc1ccc2nnn3c4ccccc4c(=O)c1c23 | > 10 µM (inactive) | 4.86 µM (inactive) |  | 4.19 µM (inactive) | 3.32 µM (inactive) | 2.88 µM (inactive) | 5.22 µM (inactive) | 3.66 µM (inactive) | 3.49 µM (inactive)
Cc1c2ccncc2c(C)c2c1[nH]c1ccc(Cl)cc12 | 3.94 µM (inactive) | 2.56 µM (inactive) | 2.52 µM (inactive) | 2.15 µM (inactive) | 2.56 µM (inactive) |  | 1.84 µM (inactive) | 1.59 µM (inactive) | 4.31 µM (inactive)
